Results: PMC4097363, “Trace amines inhibit insect odorant receptor function through antagonism of the co-receptor subunit” (F1000Research, 2014)

Key:
Assay in all cases: Inhibition of odorant activation of heteromeric OR in Xenopus oocytes
Agam\Orco+Agam\Or48 = target: T1, Agam\Orco+Agam\Or48 (Anopheles gambiae, UniProt Q7QCC7); format: cell-based; conditions: activated by 3µM 2-nonanone; 10µM tryptamine or 100µM tyramine
T1 sequence (Q7QCC7 1-478): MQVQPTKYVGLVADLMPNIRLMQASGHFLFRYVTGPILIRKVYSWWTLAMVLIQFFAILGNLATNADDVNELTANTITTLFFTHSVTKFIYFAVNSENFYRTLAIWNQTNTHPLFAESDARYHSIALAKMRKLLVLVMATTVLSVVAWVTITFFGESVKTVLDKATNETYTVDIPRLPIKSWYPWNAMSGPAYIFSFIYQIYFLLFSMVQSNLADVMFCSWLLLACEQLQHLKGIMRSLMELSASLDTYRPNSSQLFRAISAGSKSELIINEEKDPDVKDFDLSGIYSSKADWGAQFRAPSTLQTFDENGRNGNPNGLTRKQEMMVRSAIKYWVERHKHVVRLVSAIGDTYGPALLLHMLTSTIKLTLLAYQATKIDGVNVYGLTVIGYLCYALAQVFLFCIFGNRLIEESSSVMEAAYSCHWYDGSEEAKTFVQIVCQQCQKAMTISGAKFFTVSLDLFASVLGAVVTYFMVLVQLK
Method: (§1) Follicle cells were removed by treatment with collagenase B (Boehringer Mannheim) for 2 hours at room temperature. Capped cRNA encoding each OR subunit was generated using mMessage mMachine kits (Ambion). For heteromeric ORs, 25 ng of cRNA encoding each OR subunit was injected into Stage V-VI Xenopus oocytes. For expression of Orco homomers, 50 ng of cRNA was injected. Oocytes were incubated at 18°C in Barth's saline (in mM: 88 NaCl, 1 KCl, 2.4 NaHCO 3, 0.3 CaNO 3, 0.41 CaCl 2, 0.82 MgSO 4, 15 HEPES, pH 7.6, and 150µg/ml ceftazidime) for 2–5 days prior to electrophysiological recording.
(§2) Odorant and Orco ligand induced currents were recorded under two-electrode voltage clamp, using an automated parallel electrophysiology system (OpusExpress 6000A, Molecular Devices). Oocytes were perfused with ND96 (in mM: 96 NaCl, 2 KCl, 1 CaCl 2, 1 MgCl 2, 5 HEPES, pH 7.5). Orco ligands were prepared as 50 or 100 mM stock solutions in DMSO and then diluted into ND96 on the day of the experiment. Odorants were prepared as 100 mM stock solutions in DMSO and then diluted into ND96. Unless otherwise noted, applications were for 60 sec at a flow rate of 1.0 ml/min, with extensive washing in ND96 at 4.6 ml/min between applications. Micropipettes were filled with 3 M KCl and had resistances of 0.2–2.0 MΩ. The holding potential was -70 mV. […]

Agam\Orco+Agam\Or27 = format: cell-based, Anopheles gambiae; conditions: activated by 3µM L-fenchone; 10µM tryptamine or 100µM tyramine
Method: as §1
(§3) Odorant and Orco ligand induced currents were recorded under two-electrode voltage clamp, using an automated parallel electrophysiology system (OpusExpress 6000A, Molecular Devices). Oocytes were perfused with ND96 (in mM: 96 NaCl, 2 KCl, 1 CaCl 2, 1 MgCl 2, 5 HEPES, pH 7.5). Orco ligands were prepared as 50 or 100 mM stock solutions in DMSO and then diluted into ND96 on the day of the experiment. Odorants were prepared as 100 mM stock solutions in DMSO and then diluted into ND96. Unless otherwise noted, applications were for 60 sec at a flow rate of 1.0 ml/min, with extensive washing in ND96 at 4.6 ml/min between applications. Micropipettes were filled with 3 M KCl and had resistances of 0.2–2.0 MΩ. The holding potential was -70 mV. Current responses, filtered (4-pole, Bessel, low pass) at 20 Hz (-3 db) and sampled at 100 Hz, were captured and stored using OpusXpress 1.1 software (Molecular Devices).
(§4) To measure inhibition of odorant activation of heteromeric ORs ( Figures 4B, 4C, Figure 5B and Figure 6), oocytes were exposed to a 30 sec application of odorant followed by a 10 min wash. Oocytes were then exposed to a 90 sec application of tryptamine or tyramine, immediately followed by a 30 sec co-application of tryptamine or tyramine and odorant. The current response in the presence of antagonist candidate was compared to the preceding response to odorant alone and expressed as a percentage. […] For this reason, we then re-normalized antagonism data to the value obtained when the assay was run in the absence of antagonist candidate (sham). In the “sham” assay, oocytes were exposed to a 30 sec application of odorant followed by a 10 min wash and then exposed to a 90 sec application of ND96 (no antagonist candidate), immediately followed by a 30 sec application of odorant. The second odorant response was compared to the first response and expressed as a percentage. In Figure 4B, 4C, Figure 5B and Figure 6, the sham value for 100nM eugenol was 57 ± 3% (mean ± SEM, n = 3). In Figure 5B, the sham value for 10nM eugenol was 93 ± 4% (n = 4). In Figure 4B and C, the sham value for 1µM Z11-14:OAc was 82 ± 6% (n = 6) and the sham value for 150µM 2-phenylethanol was 92 ± 2% (n = 3). In Figure 6, the sham value for 3µM L-fenchone was 83 ± 1% (n = 3), the sham value for 40µM acetophenone was 92 ± 1% (n = 3), the sham value for 70µM geranyl acetate was 97 ± 1% (n = 3), the sham value for 10µM 6-methyl-5-hepten-2-one was 94 ± 2% (n = 3) and the sham value for 3µM 2-nonanone was 81 ± 1% (n = 3).

Agam\Orco+Agam\Or28 = format: cell-based, Anopheles gambiae; conditions: activated by 40µM acetophenone; 10µM tryptamine or 100µM tyramine
Method: as §1, §3, §4

Agam\Orco+Agam\Or39 = format: cell-based, Anopheles gambiae; conditions: activated by 10µM 6-methyl-5-hepten-2-one; 10µM tryptamine or 100µM tyramine
Method: as §1, §3, §4

Agam\Orco+Agam\Or31 = format: cell-based, Anopheles gambiae; conditions: activated by 70µM geranyl acetate; 10µM tryptamine or 100µM tyramine
Method: as §1, §3, §4

Onub\Orco+Onub\Or6 = format: cell-based, Ostrinia nubilalis; conditions: activated by 1µM Z11-14:OAc; 10µM tryptamine or 100µM tyramine
Method: as §1, §2

Structure (SMILES)	inhibition of odorant activation of the OR (Agam\Orco+Agam\Or48)	inhibition of odorant activation of the OR (Agam\Orco+Agam\Or27)	inhibition of odorant activation of the OR (Agam\Orco+Agam\Or28)	inhibition of odorant activation of the OR (Agam\Orco+Agam\Or39)	inhibition of odorant activation of the OR (Agam\Orco+Agam\Or31)	inhibition of odorant activation of the OR (Onub\Orco+Onub\Or6)
NCCc1c[nH]c2ccccc12 [tryptamine]	able to inhibit odorant activation of the receptor	able to inhibit odorant activation of the receptor	able to inhibit odorant activation of the receptor	able to inhibit odorant activation of the receptor	able to inhibit odorant activation of the receptor	substantial inhibition of each receptor
NCCc1ccc(O)cc1 [tyramine]	able to inhibit odorant activation of each of these receptors, but was less effective than tryptamine	able to inhibit odorant activation of each of these receptors, but was less effective than tryptamine	able to inhibit odorant activation of each of these receptors, but was less effective than tryptamine	able to inhibit odorant activation of each of these receptors, but was less effective than tryptamine	able to inhibit odorant activation of each of these receptors, but was less effective than tryptamine	able to reduce odorant activation of these ORs, but was less effective than tryptamine
